From paper PMC5583658, “6,7-dimethoxy-1,2,3,4-tetrahydro-isoquinoline-3-carboxylic acid attenuates heptatocellular carcinoma in rats with NMR-based metabolic perturbations” (Future Science OA, 2017)
“Also recorded” adds a separate entry of the source.

Columns and labels:
albino Wistar rats = assay: Acute oral toxicity study (OECD Guidelines 423); assay type: in vivo; settings: for Bilirubin / Bilverdin / CAT / MDA / PC / Reduced GSH / SOD: liver; for Bilirubin / Bilverdin / CAT / MDA / PC / Reduced GSH / SOD / AST / ALT: normal rats, mean±SD, n=6; for AST / ALT: plasma
Experimental: Acute oral toxicity study of M1 was performed as per revised Organization for Economic Cooperation and Development Guidelines 423. Animal Ethical Committee approved this study (Approval No. SDCOP&VS/AH/CPCSE01/017/R2). M1 was dissolved in 0.25% carboxymethyl cellulose (CMC) and administered orally at the dose of 25, 50, 100, 250 mg/kg body weight to albino Wistar rats for 4 weeks (n = 6) and the animals were observed every day for any toxic manifestations.

[1] = Determination of M1 in rat plasma by HPLC (pharmacokinetics); assay type: in vivo, albino Wistar rats
Experimental: In a separate experiment, M1 was administered orally at 50 mg/kg bodyweight to albino Wistar rats (n = 3) and blood was collected from retro orbital plexus at 0.083, 0.25, 0.5, 1, 2, 4, 8, 12, 16, 24 and 36 h. After collection, blood was centrifuged at 10,000 rpm for 10 min, serum was separated and kept at -20°C for further HPLC determination.
A 1 mg/ml stock solution of M1 was prepared in methanol. 2, 5, 10, 25, 50, 100, 200, 250 and 500 ng/ml working solutions were prepared from the stock solution in methanol. A 100 μl of blank plasma and 100 μl working solutions were taken in separate tubes and vortexed for 30 min. After that, the tubes were centrifuged at 13,000 rpm for 5 min and supernatant was taken into another tube and dried at 40°C overnight. Later, the tubes were reconstituted with 50 μl of methanol, vortexed for 10 min and 20 μl was injected for HPLC analysis. The final concentration of working solutions were 1, 2.5, 5, 12.5, 25, 50, 100, 125 and 250 ng/ml, respectively. Quality control (QC) samples were also prepared at concentrations of 3.0, 25.0 and 200.0 ng/ml, representing low, medium and high QC samples (LQC, MQC and HQC), respectively. Triplicate calibrants and QC samples were prepared at each concentration.
For test samples, 100 μl of test plasma and 100 μl methanol were taken in a test tube and vortexed for 30 min. The other procedure was similar to previously described method.
For the determination of M1 in plasma samples, chromatographic separations were performed in a Waters 2489 HPLC (MA, USA) equipped with Spherowsorb C18, 5μ, 4.6 × 250 mm column. The flow rate was at 1.0 ml/min and the mobile phases consisted of solvent A (formic acid containing water, pH 3.4) and solvent B (methanol). The elution condition was methanol:formic acid (70:30) and the total run time was 8 min. The HPLC was run through Empower software version 2 and absorbance was measured at 230 nm wave length. The detector used for estimation was Waters 2489 UV-Vis detector. The final data was calculated using Winnonlin version 1.5.3 software.

[2] = tested on: diethylnitrosamine-induced hepatocarcinogenic rats; assay: Histopathological studies of liver (hematoxylin and eosin); assay type: in vivo, albino Wistar rats; settings: DEN+M1 50 and 100 mg/kg orally; 40X
Experimental: All animals were randomly divided into five groups of six animals each. Drugs were suspended in 0.25% CMC, subjected to 28 days’ treatment orally and divided as follows: Group I: 0.25% CMC (2 ml/kg), Group II: DEN (8 mg/kg, intraperitoneally), Group III: DEN+5-fluorouracil (5-FU, 10 mg/kg, intraperitoneally), Group IV: DEN+M1 (50 mg/kg, orally) and Group V: DEN+M1 (100 mg/kg, orally). The procedure to induce HCC was adopted from a paper by Song et al. where it is shown that DEN produces HCC at 8 mg/kg intraperitoneal injection for 28 days to albino Wistar rats. After initial 1 week of adaptive inhabitation, all rats of group II–V were administered with DEN (8 mg/kg, intraperitoneally) for 28 days. After 28 days, 5-FU and M1 were given for 15 days as mentioned above for group III–V. At the end of the experimental period, animals were sacrificed by cervical decapitation and livers were dissected out immediately, rinsed in ice cold saline and stored at -20°C for further studies. The serum was collected, processed and stored for further analysis.
Histopathological studies were also performed to find out the morphological changes of liver cells after M1 administration. Liver tissues from each group were assessed for their morphological changes using hematoxylin and eosin staining. The tissues were preserved in 10% formalin overnight. […]

[3] = albino Wistar, rat, single oral administration of 50 mg/kg in rats, n = 3, plasma

## COc1cc2c(cc1OC)CC(C(=O)O)NC2 (stereo not drawn) [M1, 6,7-dimethoxy-1,2,3,4-tetrahydro-isoquinoline-3-carboxylic acid]
Albino Wistar rats; M1 dose ranging from 25 to 250 mg/kg orally
  changes in ALT, AST, bilirubin, biliverdin, SOD, CAT, PC, GSH, TBARS as compared with normal control: no significant changes
Albino Wistar rats; M1 25 mg/kg orally
  Bilirubin: 19.24±1.27 ng/µg of protein
  Bilverdin: 7.15±0.78 ng/µg of protein
  CAT: 8.22 ± 1.91 nM of H2O2 /min/μg of protein
  MDA: 9.25 ± 2.87 nM/μg of protein
  PC: 0.68 ± 0.17 µM/μg of protein
  Reduced GSH: 4.94 ± 1.17 µM/μg of protein
  SOD: 14.27 ± 2.88 U/μg of protein
  AST: 11.33 ± 3.67 U/L
Albino Wistar rats; M1 50 mg/kg orally
  Bilirubin: 19.11±3.19 ng/µg of protein
  Bilverdin: 5.99±1.04 ng/µg of protein
  CAT: 6.94 ± 2.06 nM of H2O2 /min/μg of protein
  MDA: 10.11 ± 0.96 nM/μg of protein
  PC: 0.62 ± 0.05 µM/μg of protein
  Reduced GSH: 5.42 ± 1.34 µM/μg of protein
  SOD: 9.78 ± 1.17 U/μg of protein
  ALT: 33.16± 4.22 U/L
  AST: 11.90 ± 1.69 U/L
Albino Wistar rats; M1 100 mg/kg orally
  Bilirubin: 18.24±2.55 ng/µg of protein
  Bilverdin: 7.62±1.45 ng/µg of protein
  CAT: 8.45 ± 1.59 nM of H2O2 /min/μg of protein
  MDA: 11.22 ± 1.91 nM/μg of protein
  PC: 0.49 ± 0.07 µM/μg of protein
  Reduced GSH: 5.78 ± 1.65 µM/μg of protein
  SOD: 8.97 ± 1.95 U/μg of protein
  ALT: 33.24 ± 1.57 U/L
  AST: 14.33 ± 1.28 U/L
Albino Wistar rats; M1 250 mg/kg orally
  Bilirubin: 20.13±2.56 ng/µg of protein
  Bilverdin: 7.91±0.99 ng/µg of protein
  CAT: 7.38 ± 1.28 nM of H2O2 /min/μg of protein
  MDA: 12.33 ± 2.17 nM/μg of protein
  PC: 0.48 ± 0.08 µM/μg of protein
  Reduced GSH: 6.22 ± 1.07 µM/μg of protein
  SOD: 9.12 ± 1.65 U/μg of protein
  ALT: 35.11 ± 2.84 U/L
  AST: 14.92 ± 3.52 U/L
Albino Wistar rats; oral, albino Wistar rats, 4 weeks
  safe dose: up to 250 mg/kg body weight
[1]; albino Wistar, rat, plasma, po, 50 mg/kg, single oral administration of 50 mg/kg in rats, n = 3, plasma, after 36 h
  AUC(0-t): 2070 ng·h/mL
[1]; [3]
  Cmax: 178 ± 3.27 ng/mL
  Tmax: 4 h
  half-life: 6.05 h
[1]; albino Wistar, rat, single oral administration of 50 mg/kg in rats, n = 3, plasma, read-out: MRT (mean retention time)
  MRT: 10.5 h
[1]; oral 50 mg/kg, rats, inferred from Cmax
  oral bioavailability (in words): good oral bioavailability
[1]; single oral administration of 50 mg/kg in rats, n = 3, plasma, after 36 h, 50 mg/kg
  AUC0-T: 2056.05 ± 26.22 ng·h/mL
[2]
  liver histopathology: normal tissue architecture was seen; also recorded: less ruptured and denatured cells (RC and DC) than toxic control
